As usually defined, the IC50 is the concentration needed to halve the response being measured. Lower therefore signals greater potency in that assay.

For test [1], the target named is T1, GR (Homo sapiens, UniProt P04150).
T1 sequence (P04150 1-777): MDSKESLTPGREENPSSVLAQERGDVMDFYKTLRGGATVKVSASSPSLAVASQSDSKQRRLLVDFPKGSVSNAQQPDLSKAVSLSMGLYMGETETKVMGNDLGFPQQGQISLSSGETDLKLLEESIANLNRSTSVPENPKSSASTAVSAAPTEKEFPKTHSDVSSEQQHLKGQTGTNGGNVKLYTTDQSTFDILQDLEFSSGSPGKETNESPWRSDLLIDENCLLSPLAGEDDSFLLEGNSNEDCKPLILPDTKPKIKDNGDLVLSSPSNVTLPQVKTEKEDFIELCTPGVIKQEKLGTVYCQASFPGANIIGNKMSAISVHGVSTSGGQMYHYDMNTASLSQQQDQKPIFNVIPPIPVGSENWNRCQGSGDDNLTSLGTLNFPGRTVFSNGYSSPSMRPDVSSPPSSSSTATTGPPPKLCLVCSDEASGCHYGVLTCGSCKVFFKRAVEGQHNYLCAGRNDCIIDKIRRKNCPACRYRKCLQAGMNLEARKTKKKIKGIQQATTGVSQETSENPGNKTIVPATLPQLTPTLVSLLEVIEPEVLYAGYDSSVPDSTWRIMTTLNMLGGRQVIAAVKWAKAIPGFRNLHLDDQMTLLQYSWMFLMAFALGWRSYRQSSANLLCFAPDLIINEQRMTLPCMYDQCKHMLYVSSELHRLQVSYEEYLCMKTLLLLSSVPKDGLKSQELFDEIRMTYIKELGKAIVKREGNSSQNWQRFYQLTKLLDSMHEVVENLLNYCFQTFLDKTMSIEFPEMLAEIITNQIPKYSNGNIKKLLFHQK
Kind of test: GR transcriptional reporter assay, antagonist mode (CV1 cells). In kind it is cell-based. Here is the method:
CV1 cells were maintained in MEM supplemented with 10% FBS. Transcriptional assays were performed by seeding 12 mL of cells at a density of 250,000 cells/mL into a T-75 cell culture flask in MEM supplemented with 5% charcoal-stripped serum and allowed to attach overnight. Cells were transiently transfected using FuGENE 6 (Roche Applied Science). […] Transfected cells were incubated overnight then split into four 96-well tissue culture plates and incubated for 4 hr followed by compound addition. […] The final agonist concentration used in the antagonist assays was 10 nM.

The target of test [2] is T2, PR-A (Homo sapiens, UniProt P06401).
T2 sequence (P06401 1-769 isoform P06401-2): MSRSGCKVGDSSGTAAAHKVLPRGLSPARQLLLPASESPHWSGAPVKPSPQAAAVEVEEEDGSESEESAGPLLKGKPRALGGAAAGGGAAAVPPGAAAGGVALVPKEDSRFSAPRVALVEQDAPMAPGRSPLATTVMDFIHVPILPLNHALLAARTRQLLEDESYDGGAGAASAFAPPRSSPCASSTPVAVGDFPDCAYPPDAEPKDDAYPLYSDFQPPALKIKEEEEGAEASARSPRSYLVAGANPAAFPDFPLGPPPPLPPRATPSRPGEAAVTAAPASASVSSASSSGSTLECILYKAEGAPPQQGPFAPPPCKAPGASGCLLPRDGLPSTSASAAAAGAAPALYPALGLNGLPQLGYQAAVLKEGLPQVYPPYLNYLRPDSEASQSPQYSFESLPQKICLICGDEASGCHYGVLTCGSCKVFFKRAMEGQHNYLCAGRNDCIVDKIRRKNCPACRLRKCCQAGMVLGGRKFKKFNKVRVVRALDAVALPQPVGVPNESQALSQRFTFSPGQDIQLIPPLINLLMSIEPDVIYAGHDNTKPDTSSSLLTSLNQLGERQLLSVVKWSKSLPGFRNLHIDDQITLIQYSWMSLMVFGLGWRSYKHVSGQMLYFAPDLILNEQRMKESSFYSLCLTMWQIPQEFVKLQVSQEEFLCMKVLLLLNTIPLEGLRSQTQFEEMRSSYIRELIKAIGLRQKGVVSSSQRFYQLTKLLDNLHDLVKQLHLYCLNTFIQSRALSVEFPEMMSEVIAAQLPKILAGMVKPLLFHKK
Kind of test: PR-A transcriptional reporter assay, antagonist mode (HEPG2 cells).

Test [3] deals with ERα (Homo sapiens, UniProt P03372). Nature of the test: MCF7 ERα In-Cell Western assay. To be noted: MCF7, 4 hr.
Test [4] deals with AR (Homo sapiens, UniProt P10275). Nature of the test: AR competitive radioligand binding assay (MDA-MB-453 cell lysate). Conditions: 0.6 nM 3H-R1881. As to the method:
After reaching 90% confluence, cells were harvested, resuspended in TEGM (10 mM TrisHCl pH 7.2, 1 mM EDTA, 10% glycerol, 1 mM β-mercaptoethanol, 10 mM Sodium Molybdate), and frozen in liquid nitrogen in 10 mL aliquots containing 2 × 10^7 cells/mL. […] Reactions were incubated at 4°C overnight. Bound and unbound ligands were separated by ultrafiltration using a Unifilter-96 GF/C filter plate (Perkin Elmer). Bound ^3H-R1881 was eluted in 30 μL/well Microscint-20 and quantified using a scintillation counter (Top Count).

Test [5] deals with MDA-MB-231, an ER negative human breast cancer tumor model. Kind of test: MDA-MB-231 xenograft efficacy. Conditions: GDC-0810 100 mg/kg/day p.o., 29 days. In kind it is in vivo, mice.
Test [6] concerns ER. Further details: method as in Dickler et al., 2015. Conditions: postmenopausal women with ER+ locally advanced or metastatic breast cancer, patients with FES-PET scans; ref Dickler et al., 2015; cited from earlier work.

AR, sequence (P10275 whole entry): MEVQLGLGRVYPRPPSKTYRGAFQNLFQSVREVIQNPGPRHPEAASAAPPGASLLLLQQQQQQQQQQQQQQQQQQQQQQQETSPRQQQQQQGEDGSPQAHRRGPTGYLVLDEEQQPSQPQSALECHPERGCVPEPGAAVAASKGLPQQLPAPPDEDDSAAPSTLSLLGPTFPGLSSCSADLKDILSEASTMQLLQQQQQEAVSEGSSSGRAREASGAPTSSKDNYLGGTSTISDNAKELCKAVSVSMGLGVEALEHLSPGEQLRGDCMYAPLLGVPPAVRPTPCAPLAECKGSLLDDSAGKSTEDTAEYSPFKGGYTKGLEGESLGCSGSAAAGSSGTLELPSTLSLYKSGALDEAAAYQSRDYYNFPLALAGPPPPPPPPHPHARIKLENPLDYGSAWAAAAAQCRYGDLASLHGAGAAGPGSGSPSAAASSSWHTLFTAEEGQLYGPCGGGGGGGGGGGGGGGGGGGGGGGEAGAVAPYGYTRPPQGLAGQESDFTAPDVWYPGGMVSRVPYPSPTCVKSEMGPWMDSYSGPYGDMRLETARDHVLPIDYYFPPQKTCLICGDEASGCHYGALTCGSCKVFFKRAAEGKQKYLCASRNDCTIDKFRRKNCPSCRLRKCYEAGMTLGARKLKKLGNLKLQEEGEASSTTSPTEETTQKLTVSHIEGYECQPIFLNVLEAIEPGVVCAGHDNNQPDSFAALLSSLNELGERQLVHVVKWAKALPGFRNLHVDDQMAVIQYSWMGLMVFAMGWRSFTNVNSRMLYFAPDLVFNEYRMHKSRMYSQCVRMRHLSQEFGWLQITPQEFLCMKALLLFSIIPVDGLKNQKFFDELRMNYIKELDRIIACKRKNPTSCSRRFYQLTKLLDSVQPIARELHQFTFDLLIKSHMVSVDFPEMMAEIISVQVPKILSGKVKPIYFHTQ
ERα, sequence (P03372 whole entry): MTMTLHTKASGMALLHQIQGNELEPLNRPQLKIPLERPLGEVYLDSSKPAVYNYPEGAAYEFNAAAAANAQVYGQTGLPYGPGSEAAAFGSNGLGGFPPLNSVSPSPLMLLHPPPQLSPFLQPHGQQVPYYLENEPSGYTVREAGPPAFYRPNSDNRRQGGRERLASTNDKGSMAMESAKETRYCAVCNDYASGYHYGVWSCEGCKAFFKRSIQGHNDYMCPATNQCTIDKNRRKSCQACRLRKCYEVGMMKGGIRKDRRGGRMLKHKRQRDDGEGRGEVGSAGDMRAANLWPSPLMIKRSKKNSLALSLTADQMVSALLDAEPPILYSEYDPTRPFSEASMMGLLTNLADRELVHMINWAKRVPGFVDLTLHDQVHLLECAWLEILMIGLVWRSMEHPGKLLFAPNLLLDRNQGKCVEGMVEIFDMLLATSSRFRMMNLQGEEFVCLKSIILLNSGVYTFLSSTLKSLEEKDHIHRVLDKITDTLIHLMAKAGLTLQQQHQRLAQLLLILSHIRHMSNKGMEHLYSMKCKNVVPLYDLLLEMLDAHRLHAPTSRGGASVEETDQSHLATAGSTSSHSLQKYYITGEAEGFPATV

For `CC/C(=C(\c1ccc(O)cc1)c1ccc(OCCN(C)C)cc1)c1ccccc1` [4-OH Tam, 4-hydroxytamoxifen], the IC50 in test [1] amounted to 1470 ± 1180 nM; in test [2] it was 12 ± 4.5 µM.

With `C[C@]12CC[C@@H]3c4ccc(O)cc4C[C@@H](CCCCCCCCC[S+]([O-])CCCC(F)(F)C(F)(F)F)[C@H]3[C@@H]1CC[C@@H]2O` (stereo partly drawn) [Fulvestrant], the “ERα degradation In-Cell Western Emax” value in test [3] is given as 6.4 ± 2.0 % Veh. This molecule had an IC50 in test [4] greater than 4 µM.

For the molecule `CC/C(=C(/c1ccc(/C=C/C(=O)O)cc1)c1ccc2[nH]ncc2c1)c1ccc(F)cc1Cl` [GDC-0810], in test [5], the “Tumor growth response, MDA-MB-231 xenograft” value was “did not exhibit any anti-tumor activity”. The “patients with complete/near complete (>90%) suppression of FES uptake” value in test [6] is given as 90 % of patients.

The values above are taken from article PMC4961458 (eLife, 2016).
